We go through 29 compounds from patent US10160755B2 (Plexxikon Inc., priority 2015, dated 2018).

The experiment has as its target T1, BA/F3-FLT3-ITD + F691L cells (Homo sapiens, UniProt P36888, F691L, cells depend on it, form not given).
T1 sequence (P36888 1-993 F691L): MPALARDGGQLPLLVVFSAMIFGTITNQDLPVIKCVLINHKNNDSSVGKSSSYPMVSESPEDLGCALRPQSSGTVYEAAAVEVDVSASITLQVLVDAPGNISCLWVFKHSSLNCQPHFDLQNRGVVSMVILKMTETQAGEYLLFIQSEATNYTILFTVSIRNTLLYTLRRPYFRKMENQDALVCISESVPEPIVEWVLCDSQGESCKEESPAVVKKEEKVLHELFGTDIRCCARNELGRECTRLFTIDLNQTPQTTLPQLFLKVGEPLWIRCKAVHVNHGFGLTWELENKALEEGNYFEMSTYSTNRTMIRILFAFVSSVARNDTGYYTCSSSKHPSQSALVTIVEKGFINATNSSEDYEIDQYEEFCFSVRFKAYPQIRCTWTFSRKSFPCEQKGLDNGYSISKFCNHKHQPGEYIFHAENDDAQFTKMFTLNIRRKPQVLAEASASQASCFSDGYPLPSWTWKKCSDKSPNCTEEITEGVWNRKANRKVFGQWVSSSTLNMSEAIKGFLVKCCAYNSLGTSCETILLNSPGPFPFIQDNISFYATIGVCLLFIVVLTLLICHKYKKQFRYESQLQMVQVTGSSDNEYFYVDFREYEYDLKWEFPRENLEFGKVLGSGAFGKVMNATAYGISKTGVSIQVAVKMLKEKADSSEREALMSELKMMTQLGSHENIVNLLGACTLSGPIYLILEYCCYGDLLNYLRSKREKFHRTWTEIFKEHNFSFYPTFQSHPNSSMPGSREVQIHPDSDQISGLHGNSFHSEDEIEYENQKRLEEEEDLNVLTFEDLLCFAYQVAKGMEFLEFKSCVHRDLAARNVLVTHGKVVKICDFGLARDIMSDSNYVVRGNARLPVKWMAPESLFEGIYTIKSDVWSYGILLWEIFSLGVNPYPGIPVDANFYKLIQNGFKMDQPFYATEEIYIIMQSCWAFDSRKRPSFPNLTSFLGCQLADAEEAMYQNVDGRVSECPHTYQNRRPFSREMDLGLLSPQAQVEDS
Description: BA/F3-FLT3-ITD + F691L cell proliferation assay (CellTiter-Glo). To be noted: BaF3 FLT3 ITD/F691L cells; read-out: Cell Activity (IC50 μM) BaF3_FLT3_ITD/F691L. In kind it is cell-based, murine. A digest of the protocol: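 Three-day growth assay, IC50 from CellTiter-Glo ATP luminescence vs concentration. Compounds at 10 to 0.0046 μM (1:3 steps, final DMSO 0.2%) on 1×10^4 cells/well. Cells are IL-3-independent BA/F3 lines engineered to express full-length FLT3-ITD with the D835Y or the F691L mutation.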
Turning to `CC(C)(C)n1cnc2ccc(-c3c[nH]c4ncc(-c5ccc(N6CCCCC6)nc5)nc34)cc21` [P-347, 7-(1-(tert-butyl)-1H-benzo[d]imidazol-6-yl)-2-(6-(piperidin-1-yl)pyridin-3-yl)-5H-pyrrolo[2,3-b]pyrazine], the GI50 fell in the range of 0.0001 to 1 µM.
For the compound `CC(C)(C)n1cnc2ccc(-c3c[nH]c4ncc(-c5ccc(N6CCOCC6)nc5)nc34)cc21` [P-326, 4-[5-[7-(3-tert-butylbenzimidazol-5-yl)-5H-pyrrolo[2,3-b]pyrazin-2-yl]-2-pyridyl]morpholine], the GI50 fell in the range of 0.0001 to 1 µM.
With `CC(C)(C)n1cnc2ccc(-c3c[nH]c4ncc(-c5ccc(N6CCOCC6)nc5)cc34)cc21` [P-322, 4-[5-[3-(3-tert-butylbenzimidazol-5-yl)-1H-pyrrolo[2,3-b]pyridin-5-yl]-2-pyridyl]morpholine], the GI50 is 0.0001 to 1 µM.
For `CC(C)(C)n1cnc2ccc(-c3n[nH]c4ncc(-c5ccnc(N6CCOCC6)c5)cc34)cc21` [P-297, 4-[4-[3-(3-tert-butylbenzimidazol-5-yl)-1H-pyrazolo[3,4-b]pyridin-5-yl]-2-pyridyl]morpholine], the GI50 was 0.0001 to 1 µM.
On to `CC(C)(C)n1cnc2ccc(-c3c[nH]c4ncc(-c5ccc(N6CCC(F)(F)CC6)nc5)nc34)cc21` [P-356, 7-(3-tert-butylbenzimidazol-5-yl)-2-[6-(4,4-difluoro-1-piperidyl)-3-pyridyl]-5H-pyrrolo[2,3-b]pyrazine], for which the GI50 was in the range of 0.0001 to 1 µM.
For `Cc1ncc(C#Cc2cnc3[nH]cc(-c4ccc5ncn(C(C)(C)C)c5c4)c3c2)cn1` [P-383, 1-tert-butyl-6-[5-[2-(2-methylpyrimidin-5-yl)ethynyl]-1H-pyrrolo[2,3-b]pyridin-3-yl]benzimidazole] the value was 0.0001 to 1 µM; for `O=S1(=O)CCCN1c1ccc(-c2cnc3[nH]cc(-c4ccc5ncn(C6CCCNC6)c5c4)c3c2)cc1` (centres unmarked) [P-319, 2-[4-[3-[3-(3-piperidyl)benzimidazol-5-yl]-1H-pyrrolo[2,3-b]pyridin-5-yl]phenyl]-1,2-thiazolidine 1,1-dioxide], 0.0001 to 1 µM; for `COc1ncc(-c2cnc3[nH]cc(-c4ccc5ncn(C6CCCNC6)c5c4)c3c2)cn1` (centres unmarked) [P-276, 5-(2-methoxypyrimidin-5-yl)-3-[3-(3-piperidyl)benzimidazol-5-yl]-1H-pyrrolo[2,3-b]pyridine], 10 to 200 µM.
Consider `CC(C)(C)n1cnc2ccc(-c3c[nH]c4ncc(-c5cccc(N6CCOCC6)c5)cc34)cc21` [P-316, 4-[3-[3-(3-tert-butylbenzimidazol-5-yl)-1H-pyrrolo[2,3-b]pyridin-5-yl]phenyl]morpholine], for which the GI50 lay in the range of 0.0001 to 1 µM.
With `COc1cc(-c2cnc3[nH]cc(-c4ccc5ncn(C6CCCN(S(C)(=O)=O)C6)c5c4)c3n2)ccn1` (centres unmarked) [P-281, 2-(2-methoxy-4-pyridyl)-7-[3-(1-methylsulfonyl-3-piperidyl)benzimidazol-5-yl]-5H-pyrrolo[2,3-b]pyrazine], the GI50 fell in the range of 0.0001 to 1 µM.
As for `CC(C)(C)n1cnc2ccc(-c3c[nH]c4ncc(-c5cnc(N6CCC(F)(F)CC6)nc5)nc34)cc21` [P-357, 7-(3-tert-butylbenzimidazol-5-yl)-2-[2-(4,4-difluoro-1-piperidyl)pyrimidin-5-yl]-5H-pyrrolo[2,3-b]pyrazine], the GI50 is 0.0001 to 1 µM.
With `CC(C)(C)n1cnc2ccc(-c3c[nH]c4ncc(-c5cccc(N6CCCCC6)c5)nc34)cc21` [P-336, 7-(3-tert-butylbenzimidazol-5-yl)-2-[3-(1-piperidyl)phenyl]-5H-pyrrolo[2,3-b]pyrazine], the GI50 lay within 0.0001 to 1 µM.
Turning to `CCN1CCN(c2cccc(-c3cnc4[nH]cc(-c5ccc6ncn(C(C)(C)C)c6c5)c4n3)c2)CC1` [P-330, 7-(3-tert-butylbenzimidazol-5-yl)-2-[3-(4-ethylpiperazin-1-yl)phenyl]-5H-pyrrolo[2,3-b]pyrazine], the GI50 was in the range of 0.0001 to 1 µM.
Regarding `CC(C)(C)n1cnc2ccc(-c3c[nH]c4ncc(-c5ccnc(N6CCCCS6(=O)=O)c5)nc34)cc21` [P-309, 2-[4-[7-(3-tert-butylbenzimidazol-5-yl)-5H-pyrrolo[2,3-b]pyrazin-2-yl]-2-pyridyl]thiazinane 1,1-dioxide], the GI50 lay in the range of 0.0001 to 1 µM.
In the case of `FC(F)n1cc(-c2cnc3[nH]cc(-c4ccc5ncn(C6CCCNC6)c5c4)c3c2)cn1` (centres unmarked) [P-274, 5-[1-(difluoromethyl)pyrazol-4-yl]-3-[3-(3-piperidyl)benzimidazol-5-yl]-1H-pyrrolo[2,3-b]pyridine], the GI50 lay within 0.0001 to 1 µM.
Then `CN1CCN(c2cccc(-c3cnc4[nH]cc(-c5ccc6ncn(C7CCCNC7)c6c5)c4n3)c2)CC1` (centres unmarked) [P-332, 2-[3-(4-methylpiperazin-1-yl)phenyl]-7-[3-(3-piperidyl)benzimidazol-5-yl]-5H-pyrrolo[2,3-b]pyrazine], with 0.0001 to 1 µM; and `CCN1CCN(c2cccc(-c3cnc4[nH]cc(-c5ccc6ncn(C7CCCNC7)c6c5)c4n3)c2)CC1` (centres unmarked) [P-329, 2-[3-(4-ethylpiperazin-1-yl)phenyl]-7-[3-(3-piperidyl)benzimidazol-5-yl]-5H-pyrrolo[2,3-b]pyrazine], with 0.0001 to 1 µM; and `CN1CCN(c2ccc(-c3cnc4[nH]cc(-c5ccc6ncn(C(C)(C)C)c6c5)c4n3)cc2)CC1` [P-341, 7-(3-tert-butylbenzimidazol-5-yl)-2-[4-(4-methylpiperazin-1-yl)phenyl]-5H-pyrrolo[2,3-b]pyrazine], with 0.0001 to 1 µM.
For `Cc1cc(C#Cc2cnc3[nH]cc(-c4ccc5ncn(C(C)(C)C)c5c4)c3n2)cc(C)n1` [P-282, 7-(3-tert-butylbenzimidazol-5-yl)-2-[2-(2,6-dimethyl-4-pyridyl)ethynyl]-5H-pyrrolo[2,3-b]pyrazine], the GI50 lay in the range of 0.0001 to 1 µM.
As for `c1cc(N2CCCCC2)ccc1-c1cnc2[nH]cc(-c3ccc4ncn(C5CCCNC5)c4c3)c2n1` (centres unmarked) [P-346, 7-[3-(3-piperidyl)benzimidazol-5-yl]-2-[4-(1-piperidyl)phenyl]-5H-pyrrolo[2,3-b]pyrazine], the GI50 was 0.0001 to 1 µM.
Turning to `COc1cnc2[nH]cc(-c3ccc4ncn(C5CCCNC5)c4c3)c2c1` (centres unmarked) [P-079, 5-methoxy-3-[3-(3-piperidyl)benzimidazol-5-yl]-1H-pyrrolo[2,3-b]pyridine], the GI50 is 0.0001 to 1 µM.
As for `CC(C)(C)n1cnc2ccc(-c3c[nH]c4ncc(-c5ccc(C#N)nc5)cc34)cc21` [P-290, 5-[3-(3-tert-butylbenzimidazol-5-yl)-1H-pyrrolo[2,3-b]pyridin-5-yl]pyridine-2-carbonitrile], the GI50 was 0.0001 to 1 µM.
With `CCN1CCN(c2ccc(-c3cnc4[nH]cc(-c5ccc6ncn(C(C)(C)C)c6c5)c4n3)cc2)CC1` [P-358, 7-(3-tert-butylbenzimidazol-5-yl)-2-[4-(4-ethylpiperazin-1-yl)phenyl]-5H-pyrrolo[2,3-b]pyrazine], the GI50 is 0.0001 to 1 µM.
With `c1cc(N2CCCCC2)ncc1-c1cnc2[nH]cc(-c3ccc4ncn(C5CCCNC5)c4c3)c2n1` (centres unmarked) [P-348, 7-[3-(3-piperidyl)benzimidazol-5-yl]-2-[6-(1-piperidyl)-3-pyridyl]-5H-pyrrolo[2,3-b]pyrazine], the GI50 lay within 0.0001 to 1 µM.
As to `CC(C)(C)n1cnc2ccc(-c3n[nH]c4ncc(-c5cccc(N6CCCS6(=O)=O)c5)cc34)cc21` [P-296, 2-[3-[3-(3-tert-butylbenzimidazol-5-yl)-1H-pyrazolo[3,4-b]pyridin-5-yl]phenyl]-1,2-thiazolidine 1,1-dioxide], the GI50 is 0.0001 to 1 µM.
`CCN1CCN(c2ccc(-c3cnc4[nH]cc(-c5ccc6ncn(C(C)(C)C)c6c5)c4n3)cn2)CC1` [P-365, 7-(3-tert-butylbenzimidazol-5-yl)-2-[6-(4-ethylpiperazin-1-yl)-3-pyridyl]-5H-pyrrolo[2,3-b]pyrazine]: the GI50 lay within 0.0001 to 1 µM.
As to `CC(C)(C)n1cnc2ccc(-c3c[nH]c4ncc(-c5ccnc(C#N)c5)cc34)cc21` [P-291, 4-[3-(3-tert-butylbenzimidazol-5-yl)-1H-pyrrolo[2,3-b]pyridin-5-yl]pyridine-2-carbonitrile], the GI50 was in the range of 0.0001 to 1 µM.
As to `c1cc(-c2cnc3[nH]cc(-c4ccc5ncn(C6CCCNC6)c5c4)c3n2)cc(N2CCCCC2)c1` (centres unmarked) [P-337, 7-[3-(3-piperidyl)benzimidazol-5-yl]-2-[3-(1-piperidyl)phenyl]-5H-pyrrolo[2,3-b]pyrazine], the GI50 fell in the range of 0.0001 to 1 µM.
`CC(C)(C)n1cnc2ccc(-c3c[nH]c4ncc(-c5cccc(N6CCCS6(=O)=O)c5)cc34)cc21` [P-278, 2-[3-[3-(3-tert-butylbenzimidazol-5-yl)-1H-pyrrolo[2,3-b]pyridin-5-yl]phenyl]-1,2-thiazolidine 1,1-dioxide]: the GI50 lay within 0.0001 to 1 µM.
